Test results published in US5288720A, “Angiotensin II receptor blocking 2,3,6 substituted quinazolinones” (American Cyanamid Company, priority 1993, dated 1994).

Tested on: ANGIOTENSIN II VASOPRESSOR RESPONSE
Assay: AII Challenge: blockade of angiotensin II vasopressor response in conscious SHR
Type: in vivo, rat (Conscious Male Okamoto-Aoki SHR)
Conditions: SHR n=2
How it was run: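 Percent blockade is derived from the systolic pressure rise in mmHg, taking each rat's own predose response as 100%. Rats were conscious male Okamoto-Aoki SHR, 16-20 weeks, ~330 g, with aortic and caval cannulas under local procaine. Compound went i.v., i.p. or orally, then angiotensin II challenges (0.05 and 0.1 ug/kg i.v.) at 30-300 min.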

[1] = 3 mg/kg i.v., AII 0.05 mcg/kg IV, 30 min post dose
[2] = 3 mg/kg i.v., AII 0.05 mcg/kg IV, 60 min post dose
[3] = 3 mg/kg i.v., AII 0.05 mcg/kg IV, 90 min post dose
[4] = 3 mg/kg i.v., AII 0.05 mcg/kg IV, 120 min post dose
[5] = 3 mg/kg i.v., AII 0.05 mcg/kg IV, 180 min post dose
[6] = 3 mg/kg i.v., AII 0.05 mcg/kg IV, 240 min post dose
[7] = 3 mg/kg i.v., AII 0.05 mcg/kg IV, 300 min post dose
[8] = 3 mg/kg i.v., AII 0.1 mcg/kg IV, 30 min post dose
[9] = 3 mg/kg i.v., AII 0.1 mcg/kg IV, 60 min post dose
[10] = 3 mg/kg i.v., AII 0.1 mcg/kg IV, 90 min post dose
[11] = 3 mg/kg i.v., AII 0.1 mcg/kg IV, 120 min post dose
[12] = 3 mg/kg i.v., AII 0.1 mcg/kg IV, 180 min post dose
[13] = 3 mg/kg i.v., AII 0.1 mcg/kg IV, 240 min post dose
[14] = 3 mg/kg i.v., AII 0.1 mcg/kg IV, 300 min post dose
[15] = 3 mg/kg p.o., AII 0.05 mcg/kg IV, 30 min post dose
[16] = 3 mg/kg p.o., AII 0.05 mcg/kg IV, 60 min post dose
[17] = 3 mg/kg p.o., AII 0.05 mcg/kg IV, 90 min post dose
[18] = 3 mg/kg p.o., AII 0.05 mcg/kg IV, 120 min post dose
[19] = 3 mg/kg p.o., AII 0.05 mcg/kg IV, 180 min post dose
[20] = 3 mg/kg p.o., AII 0.05 mcg/kg IV, 240 min post dose
[21] = 3 mg/kg p.o., AII 0.1 mcg/kg IV, 30 min post dose
[22] = 3 mg/kg p.o., AII 0.1 mcg/kg IV, 60 min post dose
[23] = 3 mg/kg p.o., AII 0.1 mcg/kg IV, 90 min post dose
[24] = 3 mg/kg p.o., AII 0.1 mcg/kg IV, 120 min post dose
[25] = 3 mg/kg p.o., AII 0.1 mcg/kg IV, 180 min post dose
[26] = 3 mg/kg p.o., AII 0.1 mcg/kg IV, 240 min post dose

SMILES: CCCCc1nc2ccc(C(OC)C3CCCO3)cc2c(=O)n1Cc1ccc(-c2ccccc2-c2nn[nH]n2)cc1 (single isomer, unassigned) [Example 24]
- % Inhibition of AII vasopressor response [1]: 100%
- Average Change (systolic blood pressure response to AII) [1]: 0 mmHg
- % Inhibition of AII vasopressor response [2]: 93%
- Average Change (systolic blood pressure response to AII) [2]: 2.5 mmHg
- % Inhibition of AII vasopressor response [3]: 93%
- Average Change (systolic blood pressure response to AII) [3]: 2.5 mmHg
- % Inhibition of AII vasopressor response [4]: 87%
- Average Change (systolic blood pressure response to AII) [4]: 5 mmHg
- % Inhibition of AII vasopressor response [5]: 80%
- Average Change (systolic blood pressure response to AII) [5]: 7.5 mmHg
- % Inhibition of AII vasopressor response [6]: 80%
- Average Change (systolic blood pressure response to AII) [6]: 7.5 mmHg
- % Inhibition of AII vasopressor response [7]: 83%
- Average Change (systolic blood pressure response to AII) [7]: 6.5 mmHg
- % Inhibition of AII vasopressor response [8]: 100%
- Average Change (systolic blood pressure response to AII) [8]: 0 mmHg
- % Inhibition of AII vasopressor response [9]: 87%
- Average Change (systolic blood pressure response to AII) [9]: 5 mmHg
- % Inhibition of AII vasopressor response [10]: 87%
- Average Change (systolic blood pressure response to AII) [10]: 5 mmHg
- % Inhibition of AII vasopressor response [11]: 100%
- Average Change (systolic blood pressure response to AII) [11]: 0 mmHg
- % Inhibition of AII vasopressor response [12]: 81%
- Average Change (systolic blood pressure response to AII) [12]: 7.5 mmHg
- % Inhibition of AII vasopressor response [13]: 62%
- Average Change (systolic blood pressure response to AII) [13]: 15 mmHg
- % Inhibition of AII vasopressor response [14]: 59%
- Average Change (systolic blood pressure response to AII) [14]: 16 mmHg
- % Inhibition of AII vasopressor response [15]: 64%
- Average Change (systolic blood pressure response to AII) [15]: 17.5 mmHg
- % Inhibition of AII vasopressor response [16]: 54%
- Average Change (systolic blood pressure response to AII) [16]: 22.5 mmHg
- % Inhibition of AII vasopressor response [17]: 48%
- Average Change (systolic blood pressure response to AII) [17]: 25 mmHg
- % Inhibition of AII vasopressor response [18]: 54%
- Average Change (systolic blood pressure response to AII) [18]: 22.5 mmHg
- % Inhibition of AII vasopressor response [19]: 20%
- Average Change (systolic blood pressure response to AII) [19]: 39 mmHg
- % Inhibition of AII vasopressor response [20]: 12%
- Average Change (systolic blood pressure response to AII) [20]: 42.5 mmHg
- % Inhibition of AII vasopressor response [21]: 57%
- Average Change (systolic blood pressure response to AII) [21]: 22.5 mmHg
- % Inhibition of AII vasopressor response [22]: 38%
- Average Change (systolic blood pressure response to AII) [22]: 32.5 mmHg
- % Inhibition of AII vasopressor response [23]: 33%
- Average Change (systolic blood pressure response to AII) [23]: 35 mmHg
- % Inhibition of AII vasopressor response [24]: 29%
- Average Change (systolic blood pressure response to AII) [24]: 37.5 mmHg
- % Inhibition of AII vasopressor response [25]: 29%
- Average Change (systolic blood pressure response to AII) [25]: 37.5 mmHg
- % Inhibition of AII vasopressor response [26]: 24%
- Average Change (systolic blood pressure response to AII) [26]: 40 mmHg

SMILES: CCCCc1nc2ccc(C(OC)C3CCCO3)cc2c(=O)n1Cc1ccc(-c2ccccc2-c2nn[nH]n2)cc1 (single isomer, unassigned; isomer 1) [Example 23, 2-Butyl-6-[methoxy(tetrahydro-2-furanyl)methyl-3-[[2'-(1H-tetrazol-5-yl)[1,1'-biphenyl]-4-yl]-methyl]-4(3e,uns/H/ )-quinazolinone isomer 1]
- % Inhibition of AII vasopressor response [1]: 97%
- Average Change (systolic blood pressure response to AII) [1]: 1 mmHg
- % Inhibition of AII vasopressor response [2]: 93%
- Average Change (systolic blood pressure response to AII) [2]: 2.5 mmHg
- % Inhibition of AII vasopressor response [3]: 79%
- Average Change (systolic blood pressure response to AII) [3]: 7.5 mmHg
- % Inhibition of AII vasopressor response [4]: 79%
- Average Change (systolic blood pressure response to AII) [4]: 7.5 mmHg
- % Inhibition of AII vasopressor response [5]: 79%
- Average Change (systolic blood pressure response to AII) [5]: 7.5 mmHg
- % Inhibition of AII vasopressor response [6]: 60%
- Average Change (systolic blood pressure response to AII) [6]: 14 mmHg
- % Inhibition of AII vasopressor response [7]: 50%
- Average Change (systolic blood pressure response to AII) [7]: 17.5 mmHg
- % Inhibition of AII vasopressor response [8]: 96%
- Average Change (systolic blood pressure response to AII) [8]: 1.5 mmHg
- % Inhibition of AII vasopressor response [9]: 84%
- Average Change (systolic blood pressure response to AII) [9]: 6.5 mmHg
- % Inhibition of AII vasopressor response [10]: 79%
- Average Change (systolic blood pressure response to AII) [10]: 8.5 mmHg
- % Inhibition of AII vasopressor response [11]: 81%
- Average Change (systolic blood pressure response to AII) [11]: 7.5 mmHg
- % Inhibition of AII vasopressor response [12]: 75%
- Average Change (systolic blood pressure response to AII) [12]: 10 mmHg
- % Inhibition of AII vasopressor response [13]: 50%
- Average Change (systolic blood pressure response to AII) [13]: 20 mmHg
- % Inhibition of AII vasopressor response [14]: 50%
- Average Change (systolic blood pressure response to AII) [14]: 20 mmHg
- % Inhibition of AII vasopressor response [15]: 58%
- Average Change (systolic blood pressure response to AII) [15]: 20 mmHg
- % Inhibition of AII vasopressor response [16]: 21%
- Average Change (systolic blood pressure response to AII) [16]: 37.5 mmHg
- % Inhibition of AII vasopressor response [17]: 37%
- Average Change (systolic blood pressure response to AII) [17]: 30 mmHg
- % Inhibition of AII vasopressor response [18]: 47%
- Average Change (systolic blood pressure response to AII) [18]: 25 mmHg
- % Inhibition of AII vasopressor response [19]: 21%
- Average Change (systolic blood pressure response to AII) [19]: 37.5 mmHg
- % Inhibition of AII vasopressor response [21]: 18%
- Average Change (systolic blood pressure response to AII) [21]: 45 mmHg
- % Inhibition of AII vasopressor response [22]: 14%
- Average Change (systolic blood pressure response to AII) [22]: 47.5 mmHg
- % Inhibition of AII vasopressor response [23]: 32%
- Average Change (systolic blood pressure response to AII) [23]: 37.5 mmHg
- % Inhibition of AII vasopressor response [24]: 36%
- Average Change (systolic blood pressure response to AII) [24]: 35 mmHg
- % Inhibition of AII vasopressor response [25]: 9%
